Read-outs that look alike come from different tables or passages of the source.
Assays:
HT-1080 xenografts = assay: HT-1080 tumor treatment study; assay type: in vivo, mouse; conditions: nude Balb/c mice; 100 or 50 mg/Kg, QD×5 days, IP
Experimental: Nude Balb/c (Nu/Nu strain, Charles River Laboratories), female, 5-6 week. old (˜20 g average body weight).
Both compounds were formulated in an identical manner. For the 100 mg/kg dose level, each compound was delivered at a concentration of 10.0 mg/ml, in an injection volume of 0.2 ml. For the 50 mg/kg dose level, each compound was delivered at a concentration of 5.0 mg/ml, in an injection volume of 0.2 ml. For both dose levels, the vehicle contained 0.025% Tween-80, 0.01% benzyl alcohol, 35 mM acetic acid (HOAc), 100 mM potassium phosphate buffer, and 32 mM sucrose, pH=6.5.
Beginning when the mean tumor volume reached ˜200 mm^3, and continuing through day 5, every day, each animal was administered a single IP injection of one of the above treatments, for a total of 5 doses.
Each of 70 mice was implanted with 1×10^7 HT-1080 cells by SC injection of 0.1 cc of inoculum into the right hind flank. A 25 G×⅝″ needle size was used. […]
Starting on Day 1, all animals were weighed, and tumor dimensions (length (L) and width (W)) were measured, every other day. […]
The resulting tumor volume values were averaged for each study group for each time point, and were then plotted against time. Variance was expressed as standard error of the mean (±SEM).

SK-MEL-28 = assay: Sytox screen, tumor cell line panel; assay type: cell-based; conditions: Homo sapiens, Melanoma, B-raf V600E mut, ras wt, read-out: IC 50, SK-MEL-28
DLD-1 = assay: Sytox screen, tumor cell line panel; assay type: cell-based; conditions: Homo sapiens, Colon, K-ras G13D mutation, wt B-raf, read-out: IC 50, DLD-1
MALME-3M = assay: Sytox screen, tumor cell line panel; assay type: cell-based; conditions: Homo sapiens, Melanoma, B-raf V600E mut, ras wt, read-out: IC 50, MALME-3M
HOP-62 = assay: Sytox screen, tumor cell line panel; assay type: cell-based; conditions: Homo sapiens, Non-Small Cell Lung, K-ras G12V, read-out: IC 50, HOP-62
HOP-92 = assay: Sytox screen, tumor cell line panel; assay type: cell-based; conditions: Homo sapiens, Non-Small Cell Lung, Wt ras, read-out: IC 50, HOP-92
MCF7 = assay: Sytox screen, tumor cell line panel; assay type: cell-based; conditions: Homo sapiens, Breast, activated pathway, read-out: IC 50, MCF7
OVCAR-3 = assay: Sytox screen, tumor cell line panel; assay type: cell-based; conditions: Homo sapiens, Ovarian, K-ras amplification, read-out: IC 50, OVCAR-3
DU-145 = assay: Sytox screen, tumor cell line panel; assay type: cell-based; conditions: Homo sapiens, Prostate, Wt ras, read-out: IC 50, DU-145
SK-MEL-5 = assay: Sytox screen, tumor cell line panel; assay type: cell-based; conditions: Homo sapiens, Melanoma, B-raf V600E mut heterozygote, read-out: IC 50, SK-MEL-5
SK-OV-3 = assay: Sytox screen, tumor cell line panel; assay type: cell-based; conditions: Homo sapiens, Ovarian, read-out: IC 50, SK-OV-3
HT1080 = assay: Sytox screen, tumor cell line panel; assay type: cell-based; conditions: Homo sapiens, HT-1080; fibrosarcoma; n-ras mutation; read-out: IC 50, HT1080
BJELR = assay: Sytox primary screen; assay type: cell-based; conditions: Homo sapiens
From the text: The Sytox primary screen is a phenotypic assay which monitors alterations in cell survival-proliferation as a result of compound treatment. It was devised as high throughput method to identify compounds which specifically alter the growth potential of cells harboring the causative mutations found in cancer patients while not affecting the growth of normal cells.
The assay relies upon an inexpensive, simple and reliable readout of a membrane impermeable fluorescent dye (Sytox, from Molecular Probes) which binds to nucleic acid. In healthy cells, no signal is detected because the cell's membrane is intact and the dye will not enter. However, if a cell's membrane is compromised as a result of apoptosis or necrosis, a fluorescent signal proportional to the number of similarly affected cells will be detected. By utilizing a two-step readout (final read in the presence of detergent to permit labeling of all cells), the assay can identify compounds which produce cytostasis, cytotoxicity and/or mitogenesis. The first read or “dead cell” read provides an estimate of the toxicity of a given compound by indicating the number of dead or dying cells in the culture at the time of assay. The second read or “total cell” read captures both the cumulative effects of cytoxicity in reducing the size of the cell population as well as any cytostatic or anti-proliferative effects a test compound may exert on the cells in the test population in the absence of toxicity.
For the purpose of screening, the previously described BJ-TERT line was defined as the “normal” reference cell line and BJ-TERT/LT/ST/RAS^V12 cells were the tumorigenic cell line. Cells were seeded overnight in 96 well plates at densities which without treatment would permit 95% confluence in the wells 72 H later. The following day, the cells were exposed to test compounds in a dilution series for a period of 48 hours. Following this incubation period, the Sytox reagent was added to the cultures at the manufacturer's recommended concentration and the dead cell fluorescence read was taken. After completion of this measurement, the detergent Saponin was added to each well of the cultures to permeabilize the membranes allowing the Sytox reagent to enter every cell thereby, facilitating measurement of the total number of cells remaining in the culture.

OVCAR-5 = assay: Sytox screen, tumor cell line panel; assay type: cell-based; conditions: Homo sapiens, Ovarian, K-ras G12V, read-out: IC 50, OVCAR-5
PC-3 = assay: Sytox screen, tumor cell line panel; assay type: cell-based; conditions: Homo sapiens, Prostate, read-out: IC 50, PC-3
BT-549 = assay: Sytox screen, tumor cell line panel; assay type: cell-based; conditions: Homo sapiens, Breast, activated pathway, read-out: IC 50, BT-549
PANC-1 = assay: Sytox screen, tumor cell line panel; assay type: cell-based; conditions: Homo sapiens, Pancreatic, K-ras V12 mutant, read-out: IC 50, PANC-1
MIA-PaCa-2 = assay: Sytox screen, tumor cell line panel; assay type: cell-based; conditions: Homo sapiens, Pancreatic, K-ras mutant (G12C), read-out: IC 50, MIA-PaCa-2
PANC-1 xenografts = assay: PANC-1 tumor treatment study; assay type: in vivo; conditions: immunodeficient nude mouse; once a day for five consecutive days
Experimental: The experimental plan for the PANC-1 study was essentially identical to that of the HT-1080 study outlined above in Example 10 with the following exceptions: approximately 30-40 mg fragment of passaged PANC-1 tumor tissue was implanted subcutaneously in the right flank of an immunodeficient nude mouse. Tumor growth was monitored daily and when the tumors reached approximately 100 mm^3, animals harboring similarly sized tumors were group matched and compound dosing was initiated. Administration of compound 5 occurred once a day for five consecutive days at the doses listed below. In the PANC-1 xenografts, gemcitabine, administered at the maximum tolerated dose for the model, was used as a control. The gemcitabine regimen was 180 mg/kg […] on every third day over a period of 9 days.

HCT116 = assay: Sytox screen, tumor cell line panel; assay type: cell-based; conditions: Homo sapiens, HCT-116; Colon; K-ras G12D; read-out: IC 50, HCT116

In the case of `CCOc1ccccc1-n1c(CN2CCNCC2)nc2ccccc2c1=O` [Compound 5, 3-(2-ethoxyphenyl)-2-(piperazin-1-ylmethyl)quinazolin-4(3H)-one], the “antitumor activity in HT-1080 xenografts” value (HT-1080 xenografts) is reported as “robust tumor regression”, the IC50 (SK-MEL-28) is reported as no less than 100 nM and the IC50 (DLD-1) is reported as no less than 100 nM. The IC50 (MALME-3M) was no less than 100 nM, the IC50 (HOP-62) was no less than 100 nM and the IC50 (HOP-92) was no less than 1000 nM. It also gave an IC50 (MCF7) of no less than 1000 nM, an IC50 (OVCAR-3) of no less than 100 nM and an IC50 (DU-145) of no less than 100 nM. It also gave an IC50 (SK-MEL-5) of no less than 100 nM, an IC50 (SK-OV-3) of no less than 100 nM and an IC50 (HT1080) of less than 100 nM. It also gave an IC50 (BJELR; Sytox screen, 48 hours, read-out: IC50 in BJELR) of less than 100 nM, an IC50 (BJELR; fibroblast, primary, ras V12 mutation, read-out: IC 50, BJELR) of less than 100 nM and an IC50 (OVCAR-5) of less than 100 nM. It also gave an IC50 (PC-3) of no less than 1000 nM, an IC50 (BT-549) of no less than 100 nM and an IC50 (PANC-1) of less than 100 nM. The IC50 (MIA-PaCa-2) was no less than 1000 nM, the “antitumor activity in PANC-1 xenografts” value (PANC-1 xenografts) was “tumor regression” and the IC50 (HCT116) was no less than 100 nM.
